In test [1] the test system is HEL. The experiment in a line: Induction of apoptosis in HEL cells assessed as apoptotic cells at 0.5 uM incubated for 48 hrs by annexin V-FITC/PI staining based flow cytometry (reference value: 4.23%). The test is classed as functional, Homo sapiens. (In general: In flow cytometry, cells or beads pass a laser one at a time.)
Test [2] has as its system HEL. The experiment in a line: Antitumor activity against HEL cells xenografted in BALB/C mouse assessed as T/C value at 10 mg/kg, po qd for 14 days consecutively by caliper method relative to control. It is filed as functional, Homo sapiens. The note with it: time 14 day.
The subject of test [3] is HEL. The experiment in a line: Induction of apoptosis in HEL cells assessed as apoptotic cells at 0.1 uM incubated for 48 hrs by annexin V-FITC/PI staining based flow cytometry (reference value: 3.95%). The test is classed as functional, Homo sapiens.
The next test concerns A549. Nature of the test: Antiproliferative activity against human A549 cells assessed as cell growth inhibition incubated for 8 hrs by CCK8 assay. The test is classed as functional, cell-based. The conditions noted are these: A549, 8 h. On the technique in general: Formazan colour is commonly taken as a measure of viable cells.
For test [4], the system named is HEL. Nature of the test: Synergistic antiproliferative effect on HEL cells assessed as combination index at 0.37 uM in presence of vorinostat. It is filed as functional, Homo sapiens.
Test [5] concerns HEL. Nature of the test: Synergistic antiproliferative effect on HEL cells assessed as combination index at 1.11 uM in presence of vorinostat. The test is classed as functional, Homo sapiens.
The subject of another test is HCT-116. Nature of the test: Antiproliferative activity against human HCT-116 cells assessed as cell growth inhibition incubated for 8 hrs by CCK8 assay. It is filed as functional, cell-based. The conditions noted are these: HCT-116, 8 h.
Test [6] deals with HEL. The experiment in a line: Antiproliferative activity against HEL cells assessed as cell growth inhibition incubated for 8 hrs by CCK8 assay. The test is classed as functional, cell-based. The conditions noted are these: Homo sapiens.
Test [7] relates to HEL. The experiment in a line: Synergistic antiproliferative effect on HEL cells assessed as fractional inhibitory concentration index at 1.11 uM in presence of vorinostat. It is filed as functional, Homo sapiens.
The subject of test [8] is HEL. Nature of the test: Antitumor activity against HEL cells xenografted in BALB/C mouse assessed as tumor growth inhibition at 10 mg/kg, po qd for 14 days consecutively by caliper method relative to control. It is filed as functional, Homo sapiens. The note with it: 336 h, time 14 day, read-out: TGI.
Another test relates to MCF7. The experiment in a line: Antiproliferative activity against human MCF7 cells assessed as cell growth inhibition incubated for 8 hrs by CCK8 assay. It is filed as functional, cell-based. The note with it: MCF7, 8 h.
Test [9] relates to HEL. The experiment in a line: Synergistic antiproliferative effect on HEL cells assessed as combination index at 0.046 uM in presence of vorinostat. It is filed as functional, Homo sapiens.
In test [10] the test system is HEL. Nature of the test: Synergistic antiproliferative effect on HEL cells assessed as combination index at 0.04 uM in presence of vorinostat. It is filed as functional, Homo sapiens.
The subject of test [11] is HEL. The experiment in a line: Synergistic antiproliferative effect on HEL cells assessed as fractional inhibitory concentration index at 0.37 uM in presence of vorinostat. The test is classed as functional, Homo sapiens.
In test [12] the test system is HEL. The experiment in a line: Synergistic antiproliferative effect on HEL cells assessed as fractional inhibitory concentration index at 3.33 uM in presence of vorinostat. It is filed as functional, Homo sapiens.
Test [13] deals with HEL. The experiment in a line: Synergistic antiproliferative effect on HEL cells assessed as fractional inhibitory concentration index at 0.014 uM in presence of vorinostat. It is filed as functional, Homo sapiens.
Test [14] has as its system HEL. Nature of the test: Synergistic antiproliferative effect on HEL cells assessed as fractional inhibitory concentration index at 10 uM in presence of vorinostat. It is filed as functional, Homo sapiens.
The next test relates to K562. Nature of the test: Antiproliferative activity against human K562 cells assessed as cell growth inhibition incubated for 8 hrs by CCK8 assay. It is filed as functional, cell-based. The note with it: K562, 8 h.
In test [15] the test system is HEL. Nature of the test: Synergistic antiproliferative effect on HEL cells assessed as fractional inhibitory concentration index at 0.12 uM in presence of vorinostat. The test is classed as functional, Homo sapiens.
For test [16], the system named is HEL. Nature of the test: Synergistic antiproliferative effect on HEL cells assessed as fractional inhibitory concentration index at 0.04 uM in presence of vorinostat. It is filed as functional, Homo sapiens.
The subject of test [17] is HEL. The experiment in a line: Synergistic antiproliferative effect on HEL cells assessed as combination index at 3.33 uM in presence of vorinostat. It is filed as functional, Homo sapiens.
Test [18] concerns HEL. Nature of the test: Synergistic antiproliferative effect on HEL cells assessed as combination index at 10 uM in presence of vorinostat. The test is classed as functional, Homo sapiens.
Test [19] deals with HEL. The experiment in a line: Synergistic antiproliferative effect on HEL cells assessed as fractional inhibitory concentration index at 0.0046 uM in presence of vorinostat. It is filed as functional, Homo sapiens.
The next test concerns HepG2. The experiment in a line: Antiproliferative activity against human HepG2 cells assessed as cell growth inhibition incubated for 8 hrs by CCK8 assay. The conditions noted are these: HepG2, 8 h. It is filed as functional, cell-based.
The test system of test [20] is HEL. Nature of the test: Synergistic antiproliferative effect on HEL cells assessed as combination index at 0.014 uM in presence of vorinostat. It is filed as functional, Homo sapiens.
In test [21] the test system is HEL. Nature of the test: Synergistic antiproliferative effect on HEL cells assessed as combination index at 0.12 uM in presence of vorinostat. The test is classed as functional, Homo sapiens.

From ChEMBL document CHEMBL5046291, “Evodiamine-Inspired Topoisomerase-Histone Deacetylase Dual Inhibitors: Novel Orally Active Antitumor Agents for Leukemia Therapy” (J Med Chem, 2022) come the findings set out here.

One may read the T/C as the result in the treated group divided by that in the control group, in per cent. In the case of `O=C(CCCCCCC(=O)Nc1ccccc1)NO` [VORINOSTAT], the Activity worked out at 46.97% in the test with HEL [1] and 15.83% in the test with HEL [3]. For the same molecule, the T/C with HEL [2] stood at 88.3%.

In general, IC50 refers to the concentration needed to halve the response being measured. For the molecule `CN1c2ccc(F)cc2C(=O)N2CCc3c([nH]c4ccc(O)cc34)C21` (configuration not stated), the IC50 in the test with A549 was 530 nM; with HCT-116, 190 nM; in the test with HEL [6], 130 nM; with MCF7 it was 760 nM; in the test with K562, 230 nM; with HepG2, 430 nM. For the same molecule, the CI in the test on HEL [4] turned out to be 0.956; in the test with HEL [5], 0.954; in the test on HEL [9], 0.453; in the test with HEL [10], 0.784; in the test with HEL [17], 0.954; in the test with HEL [18] it was 1.03. The CI was 0.561 with HEL [20] and 0.798 in the test on HEL [21]. The “fractional inhibitory concentration index (FICI)” value in the test on HEL [7] turned out to be 0.852; in the test with HEL [11], 0.868; in the test on HEL [12], 0.862; in the test with HEL [13] it was 0.802; with HEL [14], 0.86; in the test with HEL [15], 0.853. In addition, the “fractional inhibitory concentration index (FICI)” value with HEL [16] came out at 0.836; in the test on HEL [19], 0.727. The inhibition in vivo at 10 mg/kg in the test on HEL [8] was determined as 7.4%. Further, in the test on HEL [2], the T/C was determined as 94.9%.
